Consider 14 molecules from article PMC9847585 (ACS infectious diseases, 2021).

The test system of data set [1] is tPBP2^H041. The data set can be described thus: time-dependent gel-based assay, second-order acylation by Bocillin-FL. The note with it: time-course, pH 8.0, room temperature. In kind it is biochemical, Neisseria gonorrhoeae.
The subject of data set [2] is tPBP2^H041-K361E. Description: time-dependent gel-based assay, acylation of K361E mutant by Bocillin-FL. In kind it is biochemical, Neisseria gonorrhoeae.
Another data set deals with N. gonorrhoeae H041. Description: minimum inhibitory concentration by agar dilution. Format: cell-based, Neisseria gonorrhoeae.
Data set [3] has as its system tPBP2^H041-K361E. Description: gel-based competition assay with Bocillin-FL against K361E mutant. In kind it is biochemical, Neisseria gonorrhoeae. The note with it: for Fractional Activity: fractional acylation rate of K361E compared to native tPBP2^H041; for K361E k2/Ks: tPBP2^H041-K361E mutant, competition with Bocillin-FL; for reduction in acylation rate against K361E mutant: K361E versus native tPBP2^H041.

Another data set relates to (non-mosaic) PBP2. The note with it: membrane preparations; cited from earlier work.
The subject of data set [4] is tPBP2^H041. Description: gel-based competition assay with Bocillin-FL, second-order acylation rate. In kind it is biochemical, Neisseria gonorrhoeae.
The conditions of data set [5]: cited from earlier work.
Data set [6] concerns N. gonorrhoeae strain H041.
For data set [7] the following is noted: whole molecule; cited from earlier work.
Data set [8] concerns FA19 with mosaic penA gene from H041 (penA41). The note with it: allelic exchange; cited from earlier work.
For data set [9], the system named is wild-type PBP2 (tPBP2^WT). The note with it: cited from earlier work.
The subject of a further data set is H041. The note with it: cited from earlier work.
For data set [10], the system named is tPBP2^H041. The note with it: cited from earlier work.
The mark [11] stands for this setting: Neisseria gonorrhoeae, H041, 24 h.

Converted amounts (≈) assume the structure as drawn. Where two headings read alike, the source gives them in different places.

Regarding `Cc1cc(C)n2c1C=C1C=CC(CCC(=O)Nc3ccc(OCC(=O)N[C@@H]4C(=O)N5[C@@H]4SC(C)(C)[C@@H]5C(=O)[O-])cc3)=[N+]1[B-]2(F)F.[Na+]` [Bocillin-FL], in the data set on tPBP2^H041 [1], the “second-order acylation rate k2/Ks of Bocillin-FL” value came out at 275 ± 9 M⁻¹ s⁻¹. In addition, in the data set with tPBP2^H041-K361E [2] (compared to the native enzyme), the “decrease in Bocillin-FL acylation rate against K361E” value is recorded as 5 fold. In addition, the “second-order acylation rate of Bocillin-FL against K361E” value in the data set on tPBP2^H041-K361E [2] (tPBP2^H041-K361E mutant, time-course) is 57 ± 1 M⁻¹ s⁻¹.
Usually MIC stands for the least concentration at which growth counts as inhibited. For `N[C@@H](C(=O)N[C@@H]1C(=O)N2C(C(=O)O)=C(Cl)CS[C@H]12)c1ccccc1` [cefaclor], in the data set with N. gonorrhoeae H041 (setting [11]), the MIC was no less than 32 mg/L.
In the case of `C=CC1=C(C(=O)O)N2C(=O)[C@@H](NC(=O)/C(=N\O)c3csc(N)n3)[C@H]2SC1` [cefdinir], in the data set on N. gonorrhoeae H041 (setting [11]), the lowest concentration to inhibit growth (MIC) was 2 mg/L (≈ 5.06 µM).
With `CO/N=C(\C(=O)N[C@@H]1C(=O)N2C(C(=O)[O-])=C(C[N+]3(C)CCCC3)CS[C@H]12)c1csc(N)n1` [cefepime], in the data set on tPBP2^H041-K361E [3], the “Fractional Activity” value was determined as 0.64 and the “K361E k2/Ks” value amounted to 410 ± 130 M⁻¹ s⁻¹.
As to `CCN1CCN(C(=O)N[C@@H](C(=O)N[C@@H]2C(=O)N3C(C(=O)O)=C(CSc4nnnn4C)CS[C@H]23)c2ccc(O)cc2)C(=O)C1=O` [cefoperazone], in the data set with tPBP2^H041-K361E [3], the “reduction in acylation rate against K361E mutant” value turned out to be 32 fold, the “Fractional Activity” value was 0.03 and the “K361E k2/Ks” value was found to be 370 ± 60 M⁻¹ s⁻¹. Also, the “concentration at which bound to PBP2” value with (non-mosaic) PBP2 is given as “less than 10^−3 μg/mL”. This molecule also returned an MIC in the data set on N. gonorrhoeae H041 (setting [11]) of 1 mg/L (≈ 1.55 µM). Further, in the data set on tPBP2^H041 [4], the “acylation rate relative to ceftriaxone (faster)” value came to 7 fold. Also, the route of excretion result in data set [5] is given as “primarily biliary”. The same molecule registered a culture negativity in data set [6] (120 mg/kg TID one day, intraperitoneal, by day 3 post-treatment, n = 9) of 100%.
As for `CO[C@@]1(NC(=O)Cc2cccs2)C(=O)N2C(C(=O)O)=C(COC(N)=O)CS[C@@H]21` [cefoxitin], the minimum inhibitory concentration (MIC) worked out at 3 mg/L (≈ 7.02 µM) in the data set on N. gonorrhoeae H041 (24 hr) and 4 mg/L (≈ 9.36 µM) against N. gonorrhoeae H041 (setting [11]).
On to `Cc1cc(O)c(C(=O)N[C@@H](C(=O)N[C@@H]2C(=O)N3C(C(=O)O)=C(CSc4nnnn4C)CS[C@H]23)c2ccc(O)cc2)cn1` [cefpiramide], for which the “k2/Ks lower than cefoperazone” value with tPBP2^H041 [4] is listed as 100 fold.
In turn, `NC(=O)c1cc[n+](CC2=C(C(=O)O)N3C(=O)[C@@H](NC(=O)[C@@H](c4ccccc4)S(=O)(=O)[O-])[C@H]3SC2)cc1` [cefsulodin] displayed an MIC with N. gonorrhoeae H041 (setting [11]) of no less than 32 mg/L.
In the case of `CCO/N=C(\C(=O)N[C@@H]1C(=O)N2C(C(=O)[O-])=C(Sc3nc(-c4cc[n+](C)cc4)cs3)CS[C@H]12)c1nsc(N)n1` [ceftaroline], in data set [7], the logD7.4 is recorded as 1.03.
Regarding `CC(C)(O/N=C(\C(=O)N[C@@H]1C(=O)N2C(C(=O)[O-])=C(C[n+]3ccccc3)CS[C@H]12)c1csc(N)n1)C(=O)O` [ceftazidime], in the data set on tPBP2^H041-K361E [3], the “Fractional Activity” value came to 0.70 and the “K361E k2/Ks” value worked out at 560 ± 180 M⁻¹ s⁻¹. The same molecule yielded an MIC against N. gonorrhoeae H041 (setting [11]) of no less than 32 mg/L.
For `CO/N=C(\C(=O)N[C@@H]1C(=O)N2C(C(=O)O)=C(CSc3nc(=O)c(=O)[nH]n3C)CS[C@H]12)c1csc(N)n1` [ceftriaxone], in the data set on tPBP2^H041-K361E [3], the “reduction in acylation rate against K361E mutant” value was 6 fold, the “Fractional Activity” value is recorded as 0.17 and the “K361E k2/Ks” value stood at 290 ± 70 M⁻¹ s⁻¹. Besides, in data set [8], the “increase in MIC on replacing wild-type penA in FA19 with penA41” value is recorded as 570 fold. The same molecule registered a minimum inhibitory concentration (MIC) with N. gonorrhoeae H041 (setting [11]) of 2 mg/L (≈ 3.61 µM). The “k3 (deacylation rate) of acylated complex” value in data set [9] was 2.8e-06 s⁻¹. Also, the “increase in MIC compared to strain FA19” value with H041 (H041 versus FA19) is reported as 3,000 fold. The MIC with H041 (strain H041) was 2 mg/L (≈ 3.61 µM). Moreover, in [5], the route of excretion entry was “primarily renal”. The “k3 (deacylation rate) of acylated complex” value with tPBP2^H041 [10] was 8.1e-05 s⁻¹.
`CC1=C(C(=O)O)N2C(=O)[C@@H](NC(=O)[C@H](N)c3ccccc3)[C@H]2SC1` [cephalexin] registered an MIC with N. gonorrhoeae H041 (setting [11]) of no less than 32 mg/L.
Same read-out and setting: then `CC(=O)OCC1=C(C(=O)O)N2C(=O)[C@@H](NC(=O)Cc3cccs3)[C@H]2SC1` [cephalothin], with no less than 32 mg/L.
Consider `CNC(C)C1CCC(N)C(OC2C(N)CC(N)C(OC3OCC(C)(O)C(NC)C3O)C2O)O1` (stereo not shown) [gentamicin], for which, in data set [6] (48 mg/kg once a day for 5 days (5QD), by day 4 after initiation of treatment, n = 8), the culture negativity was 100%. The mean time-to-clearance in data set [6] (48 mg/kg once a day for 5 days (5QD), n = 8) amounted to 3.1 days.
